Patent US20040254162A1, “Oxazolidinone derivatives as antimicrobials” (priority 2001, published 2004)
In brackets after ≈: the same amount, converted by molar mass. Several values for one entry are separate records, joined by “and”; a condition that tells them apart may be missing. Equal entries are not always repeated. Where two headings read alike, the source gives them in different places.

Tests used:
[1] = tested on: Mycobacterium tuberculosis
[2] = tested on: Mycobacterium avium intracellulare; assay: Agar dilution method, mycobacteria; assay type: cell-based; details: for MIC50 / MIC90: Mycobacterium avium, 504 h, Middlebrook 7H10 agar, 21 days; for MIC50: read-out: MIC50; for MIC90: read-out: MIC90
[3] = tested on: Mycobacterium tuberculosis; assay: microbe, parasite or virus in culture; details: 504 h
P. acnes = assay: Agar dilution MIC, anaerobes; assay type: cell-based; details: single isolates, anaerobic agar dilution
Prevotella intermedia = assay: Agar dilution MIC, anaerobes; assay type: cell-based; details: single isolates, anaerobic agar dilution
anaerobic bacteria = assay: Agar dilution method for anaerobic bacteria, summary; assay type: cell-based
Porphyromonas gingivalis = assay: Agar dilution MIC, anaerobes; assay type: cell-based; details: single isolate, anaerobic agar dilution
Clostridium perfringens = assay: microbe, parasite or virus in culture; assay type: cell-based
[4] = tested on: Peptostreptococcus prevotii; assay: Agar dilution MIC, anaerobes; assay type: cell-based; details: single isolates, anaerobic agar dilution
Fusobacterium varium = assay: Agar dilution MIC, anaerobes; assay type: cell-based; details: single isolates, anaerobic agar dilution
Eubacterium leutum = assay: Agar dilution MIC, anaerobes; assay type: cell-based; details: single isolates, anaerobic agar dilution
Bacteroides fragilis = assay: Agar dilution MIC, anaerobes; assay type: cell-based; details: single isolates, anaerobic agar dilution
Prevotella bivia = assay: Agar dilution MIC, anaerobes; assay type: cell-based; details: single isolate, anaerobic agar dilution
[5] = tested on: Prevotella (Bacteroides) disiens; assay: Agar dilution MIC, anaerobes; assay type: cell-based; details: single isolates, anaerobic agar dilution
[6] = tested on: Peptostreptococcus micros; assay: Agar dilution MIC, anaerobes; assay type: cell-based; details: single isolates, anaerobic agar dilution
[7] = tested on: Peptostreptococcus tetradius; assay: Agar dilution MIC, anaerobes; assay type: cell-based; details: single isolates, anaerobic agar dilution
Clostridium camis = assay: Agar dilution MIC, anaerobes; assay type: cell-based; details: single isolates, anaerobic agar dilution
Fusobacterium necrogenes = assay: Agar dilution MIC, anaerobes; assay type: cell-based; details: single isolate, anaerobic agar dilution
[8] = tested on: Porphyromonas asaccharolytica; assay: Agar dilution MIC, anaerobes; assay type: cell-based; details: single isolate, anaerobic agar dilution
Fusobacterium montiferum = assay: Agar dilution MIC, anaerobes; assay type: cell-based; details: Fusobacterium, single isolates, anaerobic agar dilution; read-out: MIC Fusobacterium montiferum
Clostridium difficile = assay: Agar dilution MIC, anaerobes; assay type: cell-based; details: single isolates, anaerobic agar dilution
[9] = tested on: Prevotella melaninogenica; assay: Agar dilution MIC, anaerobes; assay type: cell-based; details: single isolates, anaerobic agar dilution
Fusobacterium nucleatum = assay: Agar dilution MIC, anaerobes; assay type: cell-based; details: single isolates, anaerobic agar dilution
[10] = tested on: Peptostreptococcus magnum; assay: Agar dilution MIC, anaerobes; assay type: cell-based; details: single isolates, anaerobic agar dilution; listed as Ax/clav
[11] = tested on: Peptostreptococcus asaccharolyticus; assay: Agar dilution MIC, anaerobes; assay type: cell-based; details: single isolates, anaerobic agar dilution
[12] = anaerobes, Wilkins Chalgren agar, 48 hour

NNC(=O)c1ccncc1 [Isoniazid]
G.M. ([1]; geometric mean MIC): 3.17 µg/mL | MIC50 [2]: 32 µg/mL (≈ 233 µM) | MIC90 [2]: 64 µg/mL (≈ 467 µM) | G.M. ([2]; geometric mean MIC): 18.149 µg/mL | MIC50 [3]: 8 µg/mL (≈ 58.3 µM) | MIC90 [3]: 64 µg/mL (≈ 467 µM)

Cc1ncc([N+](=O)[O-])n1CCO [Metronidazole]
MIC (P. acnes; Cutibacterium acnes, read-out: MIC P. acnes): > 16 µg/mL | MIC (Prevotella intermedia; Prevotella intermedia, read-out: MIC Prevotella intermedia): 0.5 µg/mL (≈ 2.92 µM) | MIC Prevotella intermedia (Prevotella intermedia): 0.25 µg/mL (≈ 1.46 µM) | MIC50 (anaerobic bacteria; 48 h): 0.5 µg/mL (≈ 2.92 µM) | MIC90 (anaerobic bacteria; 48 h): 2 µg/mL (≈ 11.7 µM) | Geometric Mean (anaerobic bacteria; anaerobes): 0.48 µg/mL | MIC Range (anaerobic bacteria; anaerobes): 0.062 to 32 µg/mL | MIC (Porphyromonas gingivalis; Porphyromonas gingivalis, read-out: MIC Porphyromonas gingivalis): ≤ 0.125 µg/mL | MIC (Clostridium perfringens; Clostridium perfringens, read-out: MIC Clostridium perfringens, single isolates, anaerobic agar dilution): 1 µg/mL (≈ 5.84 µM) | MIC ([4]; Anaerococcus prevotii, read-out: MIC Peptostreptococcus prevotii): 2 µg/mL (≈ 11.7 µM) | MIC Peptostreptococcus prevotii [4]: 1 µg/mL (≈ 5.84 µM) | MIC (Fusobacterium varium; Fusobacterium varium, read-out: MIC Fusobacterium varium): ≤ 0.125 µg/mL | MIC (Eubacterium leutum; Eubacterium, read-out: MIC Eubacterium leutum): 0.25 µg/mL (≈ 1.46 µM) | MIC Eubacterium leutum (Eubacterium leutum): 0.5 µg/mL (≈ 2.92 µM) | MIC (Bacteroides fragilis; Bacteroides fragilis, read-out: MIC Bacteroides fragilis): 0.5 µg/mL (≈ 2.92 µM) | MIC Bacteroides fragilis (Bacteroides fragilis): 1 µg/mL (≈ 5.84 µM) | MIC (Prevotella bivia; Prevotella bivia, read-out: MIC Prevotella bivia): 1 µg/mL (≈ 5.84 µM) | MIC Prevotella (Bacteroides) disiens [5]: 1 µg/mL (≈ 5.84 µM) | MIC ([5]; read-out: MIC Prevotella (Bacteroides) disiens): 0.5 µg/mL (≈ 2.92 µM) | MIC ([6]; Parvimonas micra, read-out: MIC Peptostreptococcus micros): 0.25 µg/mL (≈ 1.46 µM) | MIC Peptostreptococcus micros [6]: 0.5 µg/mL (≈ 2.92 µM) | MIC ([7]; Anaerococcus tetradius, read-out: MIC Peptostreptococcus tetradius): 1 µg/mL (≈ 5.84 µM) | MIC (Clostridium camis; Clostridium, read-out: MIC Clostridium camis): ≤ 0.125 µg/mL | MIC (Fusobacterium necrogenes; Fusobacterium necrogenes, read-out: MIC Fusobacterium necrogenes): 0.25 µg/mL (≈ 1.46 µM) | MIC ([8]; Porphyromonas asaccharolytica, read-out: MIC Porphyromonas asaccharolytica): ≤ 0.125 µg/mL | MIC (Fusobacterium montiferum): ≤ 0.125 µg/mL | MIC (Clostridium difficile; Clostridioides difficile, read-out: MIC Clostridium difficile): 0.25 µg/mL (≈ 1.46 µM) | MIC ([9]; Prevotella melaninogenica, read-out: MIC Prevotella melaninogenica): 0.25 µg/mL (≈ 1.46 µM) | MIC Prevotella melaninogenica [9]: 0.5 µg/mL (≈ 2.92 µM)

CO[C@H]1/C=C/O[C@@]2(C)Oc3c(C)c(O)c4c(O)c(c(/C=N/N5CCN(C)CC5)c(O)c4c3C2=O)NC(=O)/C(C)=C\C=C\[C@H](C)[C@H](O)[C@@H](C)[C@@H](O)[C@@H](C)[C@H](OC(C)=O)[C@@H]1C [Rifampicin]
G.M. [1]: 6.35 µg/mL | G.M. [2]: 1.999 µg/mL | MIC50 [2]: 1 µg/mL (≈ 1.22 µM) | MIC90 [2]: 32 µg/mL (≈ 38.9 µM) | MIC50 [3]: 64 µg/mL (≈ 77.8 µM) | MIC90 [3]: 64 µg/mL (≈ 77.8 µM)

C[C@@H]1CN(c2c(F)c(N)c3c(=O)c(C(=O)O)cn(C4CC4)c3c2F)C[C@H](C)N1 [Sparfloxacin]
G.M. ([1]; geometric mean MIC): 0.53 µg/mL | MIC50 [2]: 4 µg/mL (≈ 10.2 µM) | MIC90 [2]: 8 µg/mL (≈ 20.4 µM) | G.M. ([2]; geometric mean MIC): 3.526 µg/mL | MIC50 [3]: 1 µg/mL (≈ 2.55 µM) | MIC90 [3]: 2 µg/mL (≈ 5.1 µM)

Amox + clav
MIC P. acnes (P. acnes): 0.25 µg/mL | MIC Prevotella intermedia (Prevotella intermedia): <=.125 μg/ml | Geometric Mean (anaerobic bacteria; anaerobes): 0.423 µg/mL | MIC Range (anaerobic bacteria; anaerobes): 0.062 to 32 µg/mL | MIC50 (anaerobic bacteria; [12]): 0.25 µg/mL | MIC90 (anaerobic bacteria; [12]): 8 µg/mL | MIC Fusobacterium nucleatum (Fusobacterium nucleatum): <=.125 μg/ml | MIC Porphyromonas gingivalis (Porphyromonas gingivalis): <=.125 μg/ml | MIC Clostridium perfringens (Clostridium perfringens; single isolates, anaerobic agar dilution): <=.125 μg/ml | MIC Peptostreptococcus prevotii [4]: <=.125 μg/ml | MIC Fusobacterium varium (Fusobacterium varium): 1 µg/mL | MIC Eubacterium leutum (Eubacterium leutum): 1 µg/mL | MIC Prevotella bivia (Prevotella bivia): <=.125 μg/ml | MIC Peptostreptococcus micros [6]: <=.125 μg/ml | MIC Peptostreptococcus tetradius [7]: <=.125 μg/ml | MIC Clostridium camis (Clostridium camis): <=.125 μg/ml | MIC Fusobacterium necrogenes (Fusobacterium necrogenes): 0.5 µg/mL | MIC Peptostreptococcus magnum [10]: 0.25 µg/mL and 0.5 µg/mL | MIC Porphyromonas asaccharolytica [8]: <=.125 μg/ml | MIC Peptostreptococcus asaccharolyticus [11]: 0.25 µg/mL | MIC Clostridium difficile (Clostridium difficile): 1 µg/mL | MIC Prevotella melaninogenica [9]: 2 µg/mL
